PMC8409943, “Study on mechanism of low bioavailability of black tea theaflavins by using Caco-2 cell monolayer” (Drug Delivery, 2021)
Like-named read-outs stand apart in the source and are kept apart here.

Columns and labels:
Caco-2 cells = assay: Cytotoxicity study by CCK-8 method; type: cell-based, Human; conditions: 24 h
Experimental: Standard stock solutions (1000 μM) of each theaflavin were prepared in 0.1% dimethyl sulfoxide (DMSO) in deionized water, and diluted with fresh DMEM to 100, 200, 300, 400, and 500 µmol/L respectively. Each inhibitor was prepared as instructions. The cytotoxicity of theaflavins and four inhibitors of multidrug resistant associated proteins to Caco-2 cells was examined by CCK-8 method (Song et al., [2014]). Briefly, Caco-2 cells were inoculated onto 96-well microtiter plates at a density of 1 × 10^4 cells per well. After incubation at 37 °C for 24 h, cells were incubated for another 24 h with different concentrations of theaflavins, followed by adding 10 μL CCK-8 solution and 1 h incubation at 37 °C. The absorbance (OD) value was determined at 450 nm using a microplate reader (ELX-800, Bio-Tek Instruments Inc., Winooski, USA). Four inhibitors were used in this study: Vep, inhibitor of P-gp; CsA, inhibitor and substrate of P-gp; MK-571, inhibitor of MRP1, MRP2 and MRP3; FTC, inhibitor of BCRP (Silbermann et al., [1989]; König et al., [1999]; Renes et al., [1999]; Ali et al., [2017]). The cytotoxicity of Vep, CsA, MK-571 or FTC was also determined by CCK-8 assay. […] To determine the effects of inhibitors on the cytotoxicity of theaflavins, cells were incubated with both different theaflavin monomers (100, 200, 300, 400, and 500 μM) and different inhibitors. IC50, the half inhibitory concentration, was calculated from the cell viability. The cell viability was calculated by the following equation: (1) Cell viability (%)=(ODsample− ODblank)/(ODcontrol− ODblank)×100% where ODsample is the absorbance value of cell + sample + complete medium; ODblank, the absorbance value of complete medium; ODcontrol, the absorbance value of cell + complete medium.

[1] = Transepithelial transport of theaflavins across Caco-2 cell monolayers, with or without efflux transporter inhibitors; type: in vitro ADME, Human; conditions: human; for recovery at 2 h, 200 μM: Caco-2, Caco-2 monolayers, after 2 h incubation; for efflux ratio at 2 h, 200 μM / Papp A→B at 2 h, 200 μM / Papp B→A at 2 h, 200 μM: 2 h incubation
Experimental: (§1) For transport studies, Caco-2 cells were seeded at a density of 3 × 10^5 cells per well in Transwell® inserts (polycarbonate membrane, 24 mm i.d., 0.4 μm pore size, Corning Costar Corp., NY, USA) in 6-well plates (Zhang et al., [2004]). […] The inserts were washed twice with HBSS buffer and equilibrated at 37 °C for 30 min. Standard stock solutions of each theaflavin were diluted to 200 μM with HBSS. For absorptive transport, theaflavins in 1.5 mL HBSS was added into the AP side and 2.6 mL HBSS was added into the BL side of all inserts. For secretory transport, 1.5 mL HBSS and 2.6 mL theaflavins in HBSS were added into AP side and BL side, respectively. Samples were collected from the receiving chamber after 0.5, 1, 2, 3, or 4 h incubation and then were lyophilized at −110 °C in a CoolSafe freeze dryer (LaboGene ApS, Bjarkesvej, Denmark) for HPLC analysis. The recovery rate of theaflavins in the transport was calculated from the above Equation (2).
(§2) Prior to transport inhibition experiment, cells were preincubated for 30 min with 100 μM Vep, 100 μM CsA, 100 μM MK-571, or 10 μM FTC in both sides (Vaidyanathan & Walle, [2001]; Wang et al., [2008]). Then, the absorptive and secretory experiments were performed in the presence of inhibitors as described above. Samples were collected from the receiving chamber after 2 h incubation and then were lyophilized at −110 °C for HPLC analysis.
(§3) The apparent permeability coefficient (Papp, cm/s) was calculated as follows: (3) Papp= dQ/dt×V/(A×C0) where dQ/dt is the variation in concentration on the receiving side over time (μM/s); V, the volume of the solution collected from the receiving chamber (cm^3); A, the area of the membrane (4.67 cm^2); C0, the initial concentration of theaflavins in the donor chamber (μM).
(§4) The efflux ratio was calculated as follows: (4) Efflux ratio= Papp(BL−AP)/Papp(AP−BL) where Papp, apparent permeability coefficient; AP-BL, apical to basolateral transport; BL-AP, basolateral to apical transport.

Caco-2 cell monolayers = assay: as above; type: in vitro ADME, Human; conditions: for fold increase in the influx: absorptive transport, with verapamil vs control, 2 h
Experimental: as §1, §2, §3, §4

MRP1 = assay: Western blot, protein level of MRP1; type: cell-based, Human; conditions: Caco-2 cells, 200 μM, 2 h, normalized to β-actin, vs control
Experimental: (§5) Cell lysates were prepared with RIPA lysis buffer. […] Cell protein (50 μg) was loaded onto SDS polyacrylamide gel (5% stacking gel; 8% separating gel) and separated by electrophoresis for 1.5 h at 20 mA. Next, the separated proteins were transferred onto the PVDF membrane in ice bath for 1.5 h at 120 mA, followed by blocking the membrane with 5% nonfat milk in Tris-buffered saline containing 0.1% Tween-20 (TBST) for 1 h at room temperature. After blocking, the blots were incubated overnight at 4 °C with the primary antibody of P-gp, MRP1, MRP2, MRP3, BCRP (1:200) or β-actin (1:40,000), followed by washing with TBST and incubation for 1 h at room temperature with HRP-conjugated goat anti-rabbit (1:3,000). Immunoreactive proteins were visualized by the ECL detection system, band intensity was quantified by Image Lab (Bio-Rad, CA, USA), and the protein contents were normalized to β-actin.

BCRP = assay: Western blot, protein level of BCRP; type: cell-based, Human; conditions: Caco-2 cells, 200 μM, 2 h, normalized to β-actin, vs control
Experimental: as §5

Caco-2 monolayers = assay: HPLC-MS/MS identification of metabolites in the absorptive transport of Caco-2 monolayers; type: in vitro ADME, Human; conditions: 200 µM, 2 h; for conjugated metabolites (glucuronidated, sulfated and methylated): AP side or BL side of Caco-2 monolayers; for metabolites identified: absorptive transport, AP side and BL side
Experimental: TF3G, TF3’G and TFDG were dissolved in DMSO (≤0.5%), and then, diluted with HBSS. Caco-2 cells were incubated with 200 µM TF3G, TF3’G and TFDG at 37 °C for 2 h. Samples collected from both AP side and BL side were measured by HPLC with MS detection, and the metabolites were determined in terms of the standard TF, TF3G, TF3’G, TFDG, and gallic acid (Table S2).

[2] = Stability (recovery rate) of theaflavins in HBSS and DMEM in the absence of cells; conditions: 2 h
Experimental: Standard stock solutions of each theaflavin were diluted with HBSS and DMEM respectively, obtaining final test solutions of 200 μM. The recovery rate of theaflavins in HBSS and in DMEM, in the absence of cells, was analyzed by HPLC after incubation at 37 °C for 0.5, 1, 2, 3, 4, 8, 12, and 24 hours, respectively. The recovery rate was used to measure the stability and calculated as follows: (2) Recovery rate=Ct/C0× 100% where Ct is the final concentration at different incubation time (μM); C0, the initial concentration (μM).
Theaflavins were characterized by high performance liquid chromatography (HPLC, Agilent 1100VL, Agilent Technologies Inc., CA, USA). Briefly, samples were extracted with 70% methanol, centrifuged at 685 × g for 10 min, and filtered through a 0.45 μm membrane (Nylon 66). The separation was performed by an ODS reversed-phase column (4.6 mm i.d.×250 mm, SB-C18, Agilent Technologies Inc., CA, USA) at a flow rate of 0.7 mL/min. Chromatographic conditions were slightly modified according to China National Standard (GB/T 30483-2013, GAQSIQ, P. R. China, 2013). Samples were eluted with a gradient of solvent A (100 mL water with 9 mL acetonitrile and 2 mL acetic acid) and B (100 mL acetonitrile with 17.8 mL water and 2 mL acetic acid) as follows: 0–5 min, 95% A; 5–10 min, 90% A; 10–20 min, 70% A; 20–25 min, 65% A; 25–30 min, 70% A; 30–35 min, 100% A. Theaflavins were detected using an ultraviolet detector at a wavelength of 278 nm.

[3] = Homo sapiens, Ctrl (no inhibitor)
[4] = apical to basolateral, read-out: recovery of theaflavins in absorptive transport
[5] = basolateral to apical, read-out: recovery of theaflavins in secretory transport
[6] = Caco-2, Papp(BL−AP)/Papp(AP−BL), Ctrl (no inhibitor)
[7] = Caco-2, absorptive transport, 200 μM theaflavin in HBSS, Ctrl (no inhibitor)
[8] = Caco-2, secretory transport, 200 μM theaflavin in HBSS, Ctrl (no inhibitor)
[9] = Caco-2, with 10 μM FTC (BCRP inhibitor), + 10 μM FTC (BCRP inhibitor)
[10] = Caco-2, with 10 μM FTC (BCRP inhibitor), absorptive transport, + 10 μM FTC (BCRP inhibitor)
[11] = Caco-2, with 10 μM FTC (BCRP inhibitor), secretory transport, + 10 μM FTC (BCRP inhibitor)
[12] = Caco-2, with 100 μM CsA (P-gp inhibitor and substrate), + 100 μM CsA (P-gp inhibitor and substrate)
[13] = Caco-2, with 100 μM CsA (P-gp inhibitor and substrate), absorptive transport, + 100 μM CsA (P-gp inhibitor and substrate)
[14] = Caco-2, with 100 μM CsA (P-gp inhibitor and substrate), secretory transport, + 100 μM CsA (P-gp inhibitor and substrate)
[15] = Caco-2, with 100 μM Vep (P-gp inhibitor), + 100 μM Vep (P-gp inhibitor)
[16] = Caco-2, with 100 μM Vep (P-gp inhibitor), absorptive transport, + 100 μM Vep (P-gp inhibitor)
[17] = Caco-2, with 100 μM Vep (P-gp inhibitor), secretory transport, + 100 μM Vep (P-gp inhibitor)

| Structure (SMILES) | IC50 (Caco-2 cells; + CsA) | IC50 (Caco-2 cells; + FTC) | IC50 (Caco-2 cells; + MK-571) | IC50 (Caco-2 cells; + VEP) | IC50 (Caco-2 cells; [3]) | recovery at 2 h, 200 μM [1, 4] | recovery at 2 h, 200 μM [1, 5] | efflux ratio at 2 h, 200 μM [1, 6] | Papp A→B at 2 h, 200 μM [1, 7] | Papp B→A at 2 h, 200 μM [1, 8] | efflux ratio at 2 h, 200 μM [1, 9] | Papp A→B at 2 h, 200 μM [1, 10] | Papp B→A at 2 h, 200 μM [1, 11] | efflux ratio at 2 h, 200 μM [1, 12] | Papp A→B at 2 h, 200 μM [1, 13] | Papp B→A at 2 h, 200 μM [1, 14] | efflux ratio at 2 h, 200 μM [1, 15] | Papp A→B at 2 h, 200 μM [1, 16] | Papp B→A at 2 h, 200 μM [1, 17] | increase of protein level of MRP1 (MRP1) | also measured |
| --- | --- | --- | --- | --- | --- | --- | --- | --- | --- | --- | --- | --- | --- | --- | --- | --- | --- | --- | --- | --- | --- |
| O=C(O[C@@H]1Cc2c(O)cc(O)cc2O[C@@H]1c1cc(O)c(=O)c2c(O)c(O)cc([C@H]3Oc4cc(O)cc(O)c4C[C@H]3OC(=O)c3cc(O)c(O)c(O)c3)c2c1)c1cc(O)c(O)c(O)c1 [TFDG, theaflavin-3, 3’-digallate] | 702 ± 69.4 µM | 580 ± 83.9 µM | 373 ± 38.8 µM | 509 ± 40.6 µM | 580 ± 34.7 µM | 32.7% | 24.7% | 1.57 ± 0.08 | 0.364 ± 0.034 ×10⁻⁶ cm/s | 0.569 ± 0.049 ×10⁻⁶ cm/s | 1.47 ± 0.08 | 0.375 ± 0.035 ×10⁻⁶ cm/s | 0.552 ± 0.048 ×10⁻⁶ cm/s | 1.58 ± 0.09 | 0.4 ± 0.037 ×10⁻⁶ cm/s | 0.632 ± 0.055 ×10⁻⁶ cm/s | 1.53 ± 0.08 | 0.357 ± 0.033 ×10⁻⁶ cm/s | 0.546 ± 0.047 ×10⁻⁶ cm/s | increased | efflux ratio at 2 h, 200 μM ([1]; Caco-2, with 100 μM MK-571 (MRP1, MRP2, MRP3 inhibitor), + 100 μM MK-571 (MRP1, MRP2, MRP3 inhibitor)): 1.35 ± 0.07; Papp A→B at 2 h, 200 μM ([1]; Caco-2, with 100 μM MK-571 (MRP1, MRP2, MRP3 inhibitor), absorptive transport, + 100 μM MK-571 (MRP1, MRP2, MRP3 inhibitor)): 0.389 ± 0.036 ×10⁻⁶ cm/s; Papp B→A at 2 h, 200 μM ([1]; Caco-2, with 100 μM MK-571 (MRP1, MRP2, MRP3 inhibitor), secretory transport, + 100 μM MK-571 (MRP1, MRP2, MRP3 inhibitor)): 0.524 ± 0.046 ×10⁻⁶ cm/s; transport amount, absorption peak (Caco-2 cell monolayers; apical to basolateral, 200 μM, at 2 h): 2.44 ± 0.23 nmol; transport amount, secretion peak (Caco-2 cell monolayers; basolateral to apical, 200 μM, at 2 h): 3.83 ± 0.33 nmol; increase of protein level of BCRP (BCRP): increased; conjugated metabolites (glucuronidated, sulfated and methylated) (Caco-2 monolayers): not detected; metabolites identified (Caco-2 monolayers): GA, TF, TF3G, and TF3’G |
| O=C(O[C@@H]1Cc2c(O)cc(O)cc2O[C@@H]1c1cc(O)c(=O)c2c(O)c(O)cc([C@H]3Oc4cc(O)cc(O)c4C[C@H]3O)c2c1)c1cc(O)c(O)c(O)c1 [TF3G, theaflavin-3-gallate] | 446 ± 30.1 µM | 508 ± 15.9 µM | 585 ± 78.7 µM | 454 ± 13.2 µM | 641 ± 7.8 µM | 44.2% | 47.6% | 1.58 ± 0.3 | 0.107 ± 0.004 ×10⁻⁶ cm/s | 0.168 ± 0.03 ×10⁻⁶ cm/s | 1.41 ± 0.27 | 0.109 ± 0.004 ×10⁻⁶ cm/s | 0.153 ± 0.027 ×10⁻⁶ cm/s | 1.13 ± 0.22 | 0.13 ± 0.005 ×10⁻⁶ cm/s | 0.146 ± 0.026 ×10⁻⁶ cm/s | 0.86 ± 0.16 | 0.203 ± 0.008 ×10⁻⁶ cm/s | 0.173 ± 0.031 ×10⁻⁶ cm/s | 58.36% | fold increase in the influx (Caco-2 cell monolayers): 1.90 fold; transport amount, absorptive transport (peak) (Caco-2 cell monolayers; apical to basolateral, 200 μM, at 3 h): 1.30 ± 0.08 nmol; transport amount, secretory transport (peak) (Caco-2 cell monolayers; basolateral to apical, 200 μM, at 3 h): 3.59 ± 0.36 nmol; increase of protein level of BCRP (BCRP): 115.78%; conjugated metabolites (glucuronidated, sulfated and methylated) (Caco-2 monolayers): not detected; metabolites identified (Caco-2 monolayers): GA and TF; degraded due to the structural instability [2]: 24.6% |
| O=C(O[C@@H]1Cc2c(O)cc(O)cc2O[C@@H]1c1cc(O)c(O)c2c(=O)c(O)cc([C@H]3Oc4cc(O)cc(O)c4C[C@H]3O)cc12)c1cc(O)c(O)c(O)c1 [TF3’G, theaflavin-3’-gallate] | 575 ± 84.3 µM | 432 ± 30.7 µM | 424 ± 35 µM | 467 ± 53.3 µM | 521 ± 31.9 µM | 31.8% | 31.6% | 1.62 ± 0.15 | 0.044 ± 0.003 ×10⁻⁶ cm/s | 0.072 ± 0.003 ×10⁻⁶ cm/s | 1.26 ± 0.11 | 0.054 ± 0.003 ×10⁻⁶ cm/s | 0.067 ± 0.002 ×10⁻⁶ cm/s | 1.55 ± 0.14 | 0.054 ± 0.003 ×10⁻⁶ cm/s | 0.084 ± 0.003 ×10⁻⁶ cm/s | 1.08 ± 0.1 | 0.055 ± 0.003 ×10⁻⁶ cm/s | 0.059 ± 0.002 ×10⁻⁶ cm/s | increased | fold increase in the influx (Caco-2 cell monolayers): 1.24 fold; increase of protein level of BCRP (BCRP): increased; conjugated metabolites (glucuronidated, sulfated and methylated) (Caco-2 monolayers): not detected; metabolites identified (Caco-2 monolayers): GA (peak M3, Figure 5(G,H)) and TF; degraded due to the structural instability [2]: 22.1% |
